Legend:
Test in all cases: relative viability (nuclei count vs DMSO), 5 days (fraction); higher = more cells survive
Bexarotene = compound: C=C(c1ccc(C(=O)O)cc1)c1cc2c(cc1C)C(C)(C)CCC2(C)C [Bexarotene]
Summary of the method: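 Cells of lung cancer lines were placed in 1536-well plates and kept overnight at 37 °C. Pinning then delivered five library-drug doses (not always all listed), spaced by √10, onto plates anchored with vehicle, and the cells were left 5 days without changing medium. One step fixed, permeabilised and stained them with Hoechst, and MetaXpress counted nuclei in 4× images. Viability, as a median over plates, is treated-well nuclei divided by vehicle-well nuclei, with acceptance only at control CV below 25% and at least one doubling.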

Bexarotene + Bortezomib = compound: C=C(c1ccc(C(=O)O)cc1)c1cc2c(cc1C)C(C)(C)CCC2(C)C [Bexarotene] + CC(C)C[C@H](NC(=O)[C@H](Cc1ccccc1)NC(=O)c1cnccn1)B(O)O [Bortezomib] (partner 0.002 µM)
Summary of the method: (§1)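 Relative viability was taken as the ratio of nuclei in treated wells to nuclei in vehicle wells. Lung cancer cell lines in 1536-well plates received compounds by pin tool one day after seeding, either one drug alone or a fixed anchor-drug dose plus five library-drug doses (not always all listed) in √10 steps. Nuclei were counted on 4× images after 5 days of treatment, and values are medians of duplicate plates.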

Bexarotene + Olaparib = compound: C=C(c1ccc(C(=O)O)cc1)c1cc2c(cc1C)C(C)(C)CCC2(C)C [Bexarotene] + O=C(c1cc(Cc2n[nH]c(=O)c3ccccc23)ccc1F)N1CCN(C(=O)C2CC2)CC1 [Olaparib] (partner 8 µM)
Summary of the method: as §1

Bexarotene + Lapatinib = compound: C=C(c1ccc(C(=O)O)cc1)c1cc2c(cc1C)C(C)(C)CCC2(C)C [Bexarotene] + CS(=O)(=O)CCNCc1ccc(-c2ccc3ncnc(Nc4ccc(OCc5cccc(F)c5)c(Cl)c4)c3c2)o1 [Lapatinib] (partner 2 µM)
Summary of the method: as §1

Bexarotene + Foretinib = compound: C=C(c1ccc(C(=O)O)cc1)c1cc2c(cc1C)C(C)(C)CCC2(C)C [Bexarotene] + COc1cc2c(Oc3ccc(NC(=O)C4(C(=O)Nc5ccc(F)cc5)CC4)cc3F)ccnc2cc1OCCCN1CCOCC1 [Foretinib] (partner 0.25 µM)
Summary of the method: as §1

Bexarotene + Crizotinib = compound: C=C(c1ccc(C(=O)O)cc1)c1cc2c(cc1C)C(C)(C)CCC2(C)C [Bexarotene] + C[C@@H](Oc1cc(-c2cnn(C3CCNCC3)c2)cnc1N)c1c(Cl)ccc(F)c1Cl [Crizotinib] (partner 1 µM)
Summary of the method: as §1

Bexarotene + Navitoclax = compound: C=C(c1ccc(C(=O)O)cc1)c1cc2c(cc1C)C(C)(C)CCC2(C)C [Bexarotene] + CC1(C)CCC(c2ccc(Cl)cc2)=C(CN2CCN(c3ccc(C(=O)NS(=O)(=O)c4ccc(N[C@H](CCN5CCOCC5)CSc5ccccc5)c(S(=O)(=O)C(F)(F)F)c4)cc3)CC2)C1 [Navitoclax] (partner 0.5 µM)
Summary of the method: as §1

Bexarotene + Linsitinib = compound: C=C(c1ccc(C(=O)O)cc1)c1cc2c(cc1C)C(C)(C)CCC2(C)C [Bexarotene] + C[C@]1(O)C[C@@H](c2nc(-c3ccc4ccc(-c5ccccc5)nc4c3)c3c(N)nccn32)C1 [Linsitinib] (partner 1 µM)
Summary of the method: as §1

Bexarotene + Alpelisib = compound: C=C(c1ccc(C(=O)O)cc1)c1cc2c(cc1C)C(C)(C)CCC2(C)C [Bexarotene] + Cc1nc(NC(=O)N2CCC[C@H]2C(N)=O)sc1-c1ccnc(C(C)(C)C(F)(F)F)c1 [Alpelisib] (partner 2 µM)
Summary of the method: as §1

Bexarotene + Pictilisib = compound: C=C(c1ccc(C(=O)O)cc1)c1cc2c(cc1C)C(C)(C)CCC2(C)C [Bexarotene] + CS(=O)(=O)N1CCN(Cc2cc3nc(-c4cccc5[nH]ncc45)nc(N4CCOCC4)c3s2)CC1 [Pictilisib] (partner 1 µM)
Summary of the method: as §1

Bexarotene + Phenformin = compound: C=C(c1ccc(C(=O)O)cc1)c1cc2c(cc1C)C(C)(C)CCC2(C)C [Bexarotene] + N=C(N)NC(=N)NCCc1ccccc1 [Phenformin] (partner 250 µM)
Summary of the method: as §1

Bexarotene + Decitabine = compound: C=C(c1ccc(C(=O)O)cc1)c1cc2c(cc1C)C(C)(C)CCC2(C)C [Bexarotene] + Nc1ncn([C@H]2C[C@H](O)[C@@H](CO)O2)c(=O)n1 [Decitabine] (partner 2 µM)
Summary of the method: as §1

Calu-6
relative viability (Bexarotene; 0.08 µM): 1.04
relative viability (Bexarotene; 0.253 µM): 1.03
relative viability (Bexarotene; 0.8 µM): 0.955
relative viability (Bexarotene; 2.53 µM): 1.02
relative viability (Bexarotene; 8 µM): 1.06
relative viability (Bexarotene + Bortezomib; first compound 0.08 µM): 1
relative viability (Bexarotene + Bortezomib; first compound 0.253 µM): 0.915
relative viability (Bexarotene + Bortezomib; first compound 0.8 µM): 0.904
relative viability (Bexarotene + Bortezomib; first compound 2.53 µM): 0.922
relative viability (Bexarotene + Bortezomib; first compound 8 µM): 1.27
relative viability (Bexarotene + Olaparib; first compound 0.08 µM): 0.638
relative viability (Bexarotene + Olaparib; first compound 0.253 µM): 0.563
relative viability (Bexarotene + Olaparib; first compound 0.8 µM): 0.494
relative viability (Bexarotene + Olaparib; first compound 2.53 µM): 0.606
relative viability (Bexarotene + Olaparib; first compound 8 µM): 0.568
relative viability (Bexarotene + Lapatinib; first compound 0.08 µM): 0.929
relative viability (Bexarotene + Lapatinib; first compound 0.253 µM): 1.03
relative viability (Bexarotene + Lapatinib; first compound 0.8 µM): 0.987
relative viability (Bexarotene + Lapatinib; first compound 2.53 µM): 0.963
relative viability (Bexarotene + Lapatinib; first compound 8 µM): 1.14
relative viability (Bexarotene + Foretinib; first compound 0.08 µM): 0.973
relative viability (Bexarotene + Foretinib; first compound 0.253 µM): 0.901
relative viability (Bexarotene + Foretinib; first compound 0.8 µM): 0.752
relative viability (Bexarotene + Foretinib; first compound 2.53 µM): 0.886
relative viability (Bexarotene + Foretinib; first compound 8 µM): 1.02
relative viability (Bexarotene + Crizotinib; first compound 0.08 µM): 0.786
relative viability (Bexarotene + Crizotinib; first compound 0.253 µM): 0.753
relative viability (Bexarotene + Crizotinib; first compound 0.8 µM): 0.72
relative viability (Bexarotene + Crizotinib; first compound 2.53 µM): 0.823
relative viability (Bexarotene + Crizotinib; first compound 8 µM): 0.94
relative viability (Bexarotene + Navitoclax; first compound 0.08 µM): 0.804
relative viability (Bexarotene + Navitoclax; first compound 0.253 µM): 0.801
relative viability (Bexarotene + Navitoclax; first compound 0.8 µM): 0.694
relative viability (Bexarotene + Navitoclax; first compound 2.53 µM): 0.784
relative viability (Bexarotene + Navitoclax; first compound 8 µM): 0.827
relative viability (Bexarotene + Linsitinib; first compound 0.08 µM): 1.02
relative viability (Bexarotene + Linsitinib; first compound 0.253 µM): 0.886
relative viability (Bexarotene + Linsitinib; first compound 0.8 µM): 0.729
relative viability (Bexarotene + Linsitinib; first compound 2.53 µM): 0.91
relative viability (Bexarotene + Linsitinib; first compound 8 µM): 0.954
relative viability (Bexarotene + Alpelisib; first compound 0.08 µM): 1.12
relative viability (Bexarotene + Alpelisib; first compound 0.253 µM): 0.917
relative viability (Bexarotene + Alpelisib; first compound 0.8 µM): 0.934
relative viability (Bexarotene + Alpelisib; first compound 2.53 µM): 0.958
relative viability (Bexarotene + Alpelisib; first compound 8 µM): 1.05
relative viability (Bexarotene + Pictilisib; first compound 0.08 µM): 0.944
relative viability (Bexarotene + Pictilisib; first compound 0.253 µM): 0.926
relative viability (Bexarotene + Pictilisib; first compound 0.8 µM): 0.911
relative viability (Bexarotene + Pictilisib; first compound 2.53 µM): 1.11
relative viability (Bexarotene + Pictilisib; first compound 8 µM): 0.884

A549
relative viability (Bexarotene; 0.08 µM): 1.07
relative viability (Bexarotene; 0.253 µM): 0.99
relative viability (Bexarotene; 0.8 µM): 0.964
relative viability (Bexarotene; 2.53 µM): 0.933
relative viability (Bexarotene; 8 µM): 0.878
relative viability (Bexarotene + Olaparib; first compound 0.08 µM): 0.245
relative viability (Bexarotene + Olaparib; first compound 0.253 µM): 0.388
relative viability (Bexarotene + Olaparib; first compound 0.8 µM): 0.35
relative viability (Bexarotene + Olaparib; first compound 2.53 µM): 0.291
relative viability (Bexarotene + Olaparib; first compound 8 µM): 0.3
relative viability (Bexarotene + Lapatinib; first compound 0.08 µM): 0.94
relative viability (Bexarotene + Lapatinib; first compound 0.253 µM): 1.09
relative viability (Bexarotene + Lapatinib; first compound 0.8 µM): 0.972
relative viability (Bexarotene + Lapatinib; first compound 2.53 µM): 0.925
relative viability (Bexarotene + Lapatinib; first compound 8 µM): 0.798
relative viability (Bexarotene + Foretinib; first compound 0.08 µM): 1.01
relative viability (Bexarotene + Foretinib; first compound 0.253 µM): 0.875
relative viability (Bexarotene + Foretinib; first compound 0.8 µM): 0.856
relative viability (Bexarotene + Foretinib; first compound 2.53 µM): 0.864
relative viability (Bexarotene + Foretinib; first compound 8 µM): 0.718
relative viability (Bexarotene + Crizotinib; first compound 0.08 µM): 0.736
relative viability (Bexarotene + Crizotinib; first compound 0.253 µM): 0.793
relative viability (Bexarotene + Crizotinib; first compound 0.8 µM): 0.65
relative viability (Bexarotene + Crizotinib; first compound 2.53 µM): 0.669
relative viability (Bexarotene + Crizotinib; first compound 8 µM): 0.594
relative viability (Bexarotene + Phenformin; first compound 0.08 µM): 0.133
relative viability (Bexarotene + Phenformin; first compound 0.253 µM): 0.187
relative viability (Bexarotene + Phenformin; first compound 0.8 µM): 0.157
relative viability (Bexarotene + Phenformin; first compound 2.53 µM): 0.18
relative viability (Bexarotene + Phenformin; first compound 8 µM): 0.183
relative viability (Bexarotene + Navitoclax; first compound 0.08 µM): 1.18
relative viability (Bexarotene + Navitoclax; first compound 0.253 µM): 1.29
relative viability (Bexarotene + Navitoclax; first compound 0.8 µM): 1.15
relative viability (Bexarotene + Navitoclax; first compound 2.53 µM): 0.986
relative viability (Bexarotene + Navitoclax; first compound 8 µM): 0.938
relative viability (Bexarotene + Linsitinib; first compound 0.08 µM): 0.543
relative viability (Bexarotene + Linsitinib; first compound 0.253 µM): 0.539
relative viability (Bexarotene + Linsitinib; first compound 0.8 µM): 0.586
relative viability (Bexarotene + Linsitinib; first compound 2.53 µM): 0.579
relative viability (Bexarotene + Linsitinib; first compound 8 µM): 0.451
relative viability (Bexarotene + Decitabine; first compound 0.08 µM): 0.256
relative viability (Bexarotene + Decitabine; first compound 0.253 µM): 0.291
relative viability (Bexarotene + Decitabine; first compound 0.8 µM): 0.318
relative viability (Bexarotene + Decitabine; first compound 2.53 µM): 0.242
relative viability (Bexarotene + Decitabine; first compound 8 µM): 0.237
relative viability (Bexarotene + Alpelisib; first compound 0.08 µM): 0.992
relative viability (Bexarotene + Alpelisib; first compound 0.253 µM): 0.826
relative viability (Bexarotene + Alpelisib; first compound 0.8 µM): 0.836
relative viability (Bexarotene + Alpelisib; first compound 2.53 µM): 0.671
relative viability (Bexarotene + Alpelisib; first compound 8 µM): 0.686
relative viability (Bexarotene + Pictilisib; first compound 0.08 µM): 0.59
relative viability (Bexarotene + Pictilisib; first compound 0.253 µM): 0.476
relative viability (Bexarotene + Pictilisib; first compound 0.8 µM): 0.571
relative viability (Bexarotene + Pictilisib; first compound 2.53 µM): 0.507
relative viability (Bexarotene + Pictilisib; first compound 8 µM): 0.48
